Assays:
[1] = molecular target: T1, GLS1 (purified recombinant human GAC) (Homo sapiens, UniProt O94925); experiment: GLS1 Enzymatic Activity Assay (dual-coupled enzymatic assay); format: biochemical; conditions: 50 mM potassium phosphate, 1 mM glutamine, read-out: IC50 against GLS1
T1 sequence (O94925 55-598 isoform O94925-3 limits assumed): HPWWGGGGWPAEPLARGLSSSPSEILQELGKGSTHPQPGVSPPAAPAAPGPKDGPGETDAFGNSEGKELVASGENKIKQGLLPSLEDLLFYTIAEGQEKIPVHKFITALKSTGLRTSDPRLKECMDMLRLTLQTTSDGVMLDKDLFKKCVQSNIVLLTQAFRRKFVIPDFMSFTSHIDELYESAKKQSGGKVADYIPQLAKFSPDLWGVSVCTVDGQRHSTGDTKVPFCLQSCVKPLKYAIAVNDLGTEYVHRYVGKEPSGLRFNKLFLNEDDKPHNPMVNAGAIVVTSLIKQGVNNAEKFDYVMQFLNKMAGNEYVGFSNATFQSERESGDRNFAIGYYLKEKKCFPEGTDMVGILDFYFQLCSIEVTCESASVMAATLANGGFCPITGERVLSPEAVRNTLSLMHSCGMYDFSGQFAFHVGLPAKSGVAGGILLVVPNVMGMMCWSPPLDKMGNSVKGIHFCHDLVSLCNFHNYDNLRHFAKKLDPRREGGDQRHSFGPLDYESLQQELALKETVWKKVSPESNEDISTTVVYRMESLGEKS
Procedure: GLS1 Enzymatic Activity Assay
The inhibition of purified recombinant human GAC by varying concentrations of inhibitors is assessed via a dual-coupled enzymatic assay. The glutamate produced by the glutaminase reaction is used by glutamate oxidase to produce α-ketoglutarate, ammonia, and hydrogen peroxide, with this hydrogen peroxide subsequently being used by horseradish peroxidase to produce resorufin in the presence of Amplex UltraRed. The assay buffer consisted of 50 mM HEPES (pH 7.4), 0.25 mM EDTA and 0.1 mM Triton X-100. GAC was incubated with potassium phosphate (10 minutes at room temperature) prior to incubation with inhibitor (10 minutes at room temperature). The final reaction conditions were as follows: 2 nM GAC, 50 mM potassium phosphate, 100 mU/ml glutamate oxidase (Sigma), 1 mM glutamine (Sigma), 100 mU/ml horseradish peroxidase (Sigma), 75 μM Amplex UltraRed (Life Technologies), and 1% (v/v) DMSO. The production of resorufin was monitored on a Perkin Elmer Envision plate reader (excitation 530 nm, emission 590 nm) either in a kinetics or endpoint mode (at 20 minutes). IC50 values were calculated using a four-parameter logistic curve fit.

[2] = tested on: A549 cells; experiment: Proliferation Assay (A549 viability, Cell Titer Fluor, 72 hours); format: cell-based; conditions: Homo sapiens, read-out: EC50 against A549 cell proliferation
Procedure: A549 cells were routinely maintained in RPMI 1640 media (Gibco catalog number 11875-093) supplemented with 10% dialyzed fetal bovine serum using a humidified incubator (37° C., 5% CO2 and ambient O2). In preparation for the viability assay, cells were inoculated into 384-well black CulturPlates (Perkin Elmer) at a density of 1000 cells/well in a volume of 40 μl. Following a 24-hour incubation at 37° C., 5% CO2 and ambient 02, cells were treated with compound (10 μl) in a final DMSO concentration of 0.5% (v/v). The microplates were then incubated for 72 hours (37° C., 5% CO2 and ambient O2). Cell Titer Fluor (Promega) was subsequently added (10 μl of 6× reagent) and mixed for 15 minutes at room temperature. The plates were then incubated for 30 minutes (37° C., 5% CO2 and ambient O2) and fluorescence was subsequently read on the Perkin Elmer Envision plate reader. EC50 values were calculated using a four-parameter logistic curve fit.

Structure (SMILES) | IC50 [1] | EC50 [2]
O=C(Cc1cccc(OC(F)(F)F)c1)Nc1ccc(N2CCCC(c3nnc(NC(=O)Cc4ccccc4F)s3)C2)nn1 (stereo not drawn) [Example 23, 2-(2-fluorophenyl)-N-(5-(1-(6-(2-(3-(trifluoromethoxy)phenyl)acetamido)pyridazin-3-yl)piperidin-3-yl)-1,3,4-thiadiazol-2-yl)acetamide] | < 100 nM | 100 to 500 nM
Cn1cc(CC(=O)Nc2nnc(C3CCCN(c4ccc(NC(=O)Cc5cccc(OC(F)(F)F)c5)nn4)C3)s2)cn1 (stereo not drawn) [Example 24, 2-(1-Methyl-1H-pyrazol-4-yl)-N-(5-(1-(6-(2-(3-(trifluoromethoxy)phenyl)acetamido)pyridazin-3-yl)piperidin-3-yl)-1,3,4-thiadiazol-2-yl)acetamide] | < 100 nM | 500 to 5000 nM
CC(=O)Nc1nnc(C2CCCN(c3nnc(NC(=O)Cc4cccc(OC(F)(F)F)c4)s3)C2)s1 (stereo not drawn) [Example 25, N-(5-(3-(5-acetamido-1,3,4-thiadiazol-2-yl)piperidin-1-yl)-1,3,4-thiadiazol-2-yl)-2-(3-(trifluoromethoxy)phenyl)acetamide] | 100 to 500 nM | 500 to 5000 nM
O=C(Cc1ccccn1)Nc1nnc(C2CCCN(c3nnc(NC(=O)Cc4cccc(OC(F)(F)F)c4)s3)C2)s1 (stereo not drawn) [Example 26, 2-(pyridin-2-yl)-N-(5-(1-(5-(2-(3-(trifluoromethoxy)phenyl)acetamido)-1,3,4-thiadiazol-2-yl)piperidin-3-yl)-1,3,4-thiadiazol-2-yl)acetamide] | < 100 nM | 100 to 500 nM
CC(=O)Nc1nnc(N2CCC(c3ccc(NC(=O)Cc4cccc(OC(F)(F)F)c4)nn3)C2)s1 (stereo not drawn) [Example 27, N-(6-(1-(5-acetamido-1,3,4-thiadiazol-2-yl)pyrrolidin-3-yl)pyridazin-3-yl)-2-(3-(trifluoromethoxy)phenyl)acetamide] | < 100 nM | 100 to 500 nM
CC(=O)Nc1nnc(C2CCN(c3ccc(NC(=O)Cc4cccc(OC(F)(F)F)c4)nn3)C2)s1 (stereo not drawn) [Example 29, N-(6-(3-(5-acetamido-1,3,4-thiadiazol-2-yl)pyrrolidin-1-yl)pyridazin-3-yl)-2-(3-(trifluoromethoxy)phenyl)acetamide] | < 100 nM | 100 to 500 nM
O=C(Cc1ccccn1)Nc1nnc(C2CCN(c3nnc(NC(=O)Cc4cccc(OC(F)(F)F)c4)s3)C2)s1 (stereo not drawn) [Example 32, 2-(pyridin-2-yl)-N-(5-(1-(5-(2-(3-(trifluoromethoxy)phenyl)acetamido)-1,3,4-thiadiazol-2-yl)pyrrolidin-3-yl)-1,3,4-thiadiazol-2-yl)acetamide] | 100 to 500 nM | 500 to 5000 nM
O=C(Cc1cccc(OC(F)(F)F)c1)Nc1ccc(N2CCC(c3nnc(NC(=O)Cc4ccc(F)cc4F)s3)C2)nn1 (stereo not drawn) [Example 33, 2-(2,4-difluorophenyl)-N-(5-(1-(6-(2-(3-(trifluoromethoxy)phenyl)acetamido)pyridazin-3-yl)pyrrolidin-3-yl)-1,3,4-thiadiazol-2-yl)acetamide] | < 100 nM | 100 to 500 nM
O=C(Cc1cccc(OC(F)(F)F)c1)Nc1ccc(N2CCC(c3nnc(NC(=O)CC4CCCCO4)s3)C2)nn1 (stereo not drawn) [Example 34, 2-(tetrahydro-2H-pyran-2-yl)-N-(5-(1-(6-(2-(3-(trifluoromethoxy)phenyl)acetamido)pyridazin-3-yl)pyrrolidin-3-yl)-1,3,4-thiadiazol-2-yl)acetamide] | < 100 nM | < 100 nM
O=C(Cc1cccc(OC(F)(F)F)c1)Nc1ccc(N2CCC(c3nnc(NC(=O)Cc4noc5ccccc45)s3)C2)nn1 (stereo not drawn) [Example 36, 2-(benzo[d]isoxazol-3-yl)-N-(5-(1-(6-(2-(3-(trifluoromethoxy)phenyl)acetamido)pyridazin-3-yl)pyrrolidin-3-yl)-1,3,4-thiadiazol-2-yl)acetamide] | < 100 nM | 100 to 500 nM
Cn1ccc(CNC(=O)c2nnc(N3CCC(c4ccc(NC(=O)Cc5ccccn5)nn4)C3)s2)n1 (stereo not drawn) [Example 37, N-((1-methyl-1H-pyrazol-3-yl)methyl)-5-(3-(6-(2-(pyridin-2-yl)acetamido)pyridazin-3-yl)pyrrolidin-1-yl)-1,3,4-thiadiazole-2-carboxamide] | < 100 nM | 100 to 500 nM
O=C(Cc1ccccn1)Nc1ccc(C2CCN(c3nnc(C(=O)NCc4cc(C(F)(F)F)ccn4)s3)C2)nn1 (stereo not drawn) [Example 38, 5-(3-(6-(2-(pyridin-2-yl)acetamido)pyridazin-3-yl)pyrrolidin-1-yl)-N-((4-(trifluoromethyl)pyridin-2-yl)methyl)-1,3,4-thiadiazole-2-carboxamide] | < 100 nM | < 100 nM
NC(=O)c1nnc(N2CCC(c3ccc(NC(=O)Cc4ccccn4)nn3)C2)s1 (stereo not drawn) [Example 39, 5-(3-(6-(2-(pyridin-2-yl)acetamido)pyridazin-3-yl)pyrrolidin-1-yl)-1,3,4-thiadiazole-2-carboxamide] | 100 to 500 nM | 500 to 5000 nM
CNC(=O)c1nnc(N2CCC(c3ccc(NC(=O)Cc4cn(-c5cccc(OC(F)(F)F)c5)cn4)nn3)C2)s1 (stereo not drawn) [Example 40, N-methyl-5-(3-(6-(2-(1-(3-(trifluoromethoxy)phenyl)-1H-imidazol-4-yl)acetamido)pyridazin-3-yl)pyrrolidin-1-yl)-1,3,4-thiadiazole-2-carboxamide] | < 100 nM | < 100 nM
CNC(=O)c1nnc(N2CCC(c3ccc(NC(=O)Cc4ccccn4)nn3)C2)s1 (stereo not drawn) [Example 41, N-methyl-5-(3-(6-(2-(pyridin-2-yl)acetamido)pyridazin-3-yl)pyrrolidin-1-yl)-1,3,4-thiadiazole-2-carboxamide] | 100 to 500 nM | 100 to 500 nM
O=C(Cc1ccccn1)Nc1ccc(N2CCC(c3nnc(NC(=O)Cc4cccc(OC(F)(F)F)c4)s3)C2)nn1 (stereo not drawn) [Example 42, 2-(pyridin-2-yl)-N-(6-(3-(5-(2-(3-(trifluoromethoxy)phenyl)acetamido)-1,3,4-thiadiazol-2-yl)pyrrolidin-1-yl)pyridazin-3-yl)acetamide] | < 100 nM | 100 to 500 nM
O=C(Cc1ccccn1)Nc1ccc(C2CCN(c3nnc(C(=O)NCc4cccc(OC(F)(F)F)c4)s3)C2)nn1 (stereo not drawn) [Example 43, 5-(3-(6-(2-(pyridin-2-yl)acetamido)pyridazin-3-yl)pyrrolidin-1-yl)-N-(3-(trifluoromethoxy)benzyl)-1,3,4-thiadiazole-2-carboxamide] | < 100 nM | < 100 nM
O=C(Cc1ccccn1)Nc1ccc([C@@H]2CCN(c3nnc(C(=O)NCc4cc(C(F)(F)F)ccn4)s3)C2)nn1 [Example 44, (R)-5-(3-(6-(2-(pyridin-2-yl)acetamido)pyridazin-3-yl)pyrrolidin-1-yl)-N-((4-(trifluoromethyl)pyridin-2-yl)methyl)-1,3,4-thiadiazole-2-carboxamide] | < 100 nM | < 100 nM
O=C(Cc1ccccn1)Nc1ccc([C@@H]2CCN(c3nnc(C(=O)NCc4ccccn4)s3)C2)nn1 [Example 46, (R)-5-(3-(6-(2-(pyridin-2-yl)acetamido)pyridazin-3-yl)pyrrolidin-1-yl)-N-(pyridin-2-ylmethyl)-1,3,4-thiadiazole-2-carboxamide] | < 100 nM | < 100 nM
O=C(Cc1ccccn1)Nc1ccc([C@@H]2CCN(c3nnc(C(=O)NCc4cc(C5CC5)ccn4)s3)C2)nn1 [Example 47, (R)-N-((4-cyclopropylpyridin-2-yl)methyl)-5-(3-(6-(2-(pyridin-2-yl)acetamido)pyridazin-3-yl)pyrrolidin-1-yl)-1,3,4-thiadiazole-2-carboxamide] | < 100 nM | < 100 nM
Cc1cc(C(F)(F)F)cc(CNC(=O)c2nnc(N3CC[C@@H](c4ccc(NC(=O)Cc5ccccn5)nn4)C3)s2)n1 [Example 48, (R)-N-((6-methyl-4-(trifluoromethyl)pyridin-2-yl)methyl)-5-(3-(6-(2-(pyridin-2-yl)acetamido)pyridazin-3-yl)pyrrolidin-1-yl)-1,3,4-thiadiazole-2-carboxamide] | < 100 nM | < 100 nM

Reference: patent publication US10738043B2, “GLS1 inhibitors for treating disease” (Board of Regents, The University of Texas System, priority 2015, dated 2020)
